The values below are quoted from earlier work in patent publication US20250302824A1, “IN SITU READY-TO-USE INJECTION FORMULATIONS OF POSACONAZOLE FREE OF CYCLODEXTRIN AND ITS DERIVATIVES” (Hefei Cosource Pharmaceuticals Co., Ltd, priority 2024, published 2025).

As a reminder, the solubility is the concentration that dissolves in the medium under given conditions.

SMILES strings stand for the structures. In brackets after ≈: the same amount, converted by molar mass. Like-named read-outs stand apart in the source and are kept apart here.

For the compound `CC[C@@H]([C@H](C)O)n1ncn(-c2ccc(N3CCN(c4ccc(OC[C@@H]5CO[C@@](Cn6cncn6)(c6ccc(F)cc6F)C5)cc4)CC3)cc2)c1=O` [Posaconazole], the solubility is 800 µg/mL (≈ 1140 µM) (at pH 1); “less than 1 μg/ml” (in neutral and alkaline solutions).
